Data as given in patent US11858921B2, “Uracil derivatives as TRPA1 inhibitors” (Boehringer Ingelheim International GmbH, priority 2021, dated 2024).
pIC50: −log10 of the molar value.

Assays:
human TRPA1 ion channel = target: T1, human TRPA1 ion channel (Homo sapiens, UniProt O75762); assay: Assay A: TRPA1 assay (FLIPR calcium, AITC agonism); assay type: cell-based; settings: read-out: hTRPA1 IC50
T1 construct: host or cells: HEK293
Method: A human HEK293 cell line over-expressing the human TRPA1 ion channel (Perkin Elmer, Product No. AX-004-PCL) is used as a test system for compound efficacy and potency. Compound activity is determined by measuring the effect of compounds on intracellular calcium concentration induced by AITC (Allylisothiocyanat) agonism in a FLIPRtetra system (Molecular Devices).
The cells are obtained as frozen cells in cryo-vials and stored until use at −150° C.
Cells are grown in culture medium (MEM/EBSS medium with 10% FCS and 0.4 mg/ML Geneticin). […] For sub-culturing cells are detached from flasks by Versene. At the day before the assay, cells are detached, washed twice with medium (MEM/EBSS medium with 10% FCS) and 20000 cells in 20 μl/well are seeded to Poly D-Lysin biocoated 384-well plates (black, clear bottom, Cat. 356697) from Corning. Plates are incubated for 24 hours at 37° C./5% CO2 before use in the assay.
The test compounds are dissolved in 100% DMSO at a concentration of 10 mM and in a first step diluted in DMSO to a concentration of 5 mM, followed by serial dilution steps in 100% DMSO. Dilution factor and number of dilution steps may vary according to needs. Typically 8 different concentrations by 1:5 dilutions are prepared, further intermediate dilutions (1:20) of the substances are carried out with HBSS/HEPES buffer (1×HEPES, Cat. 14065 from Gibco, 20 mM HEPES, Cat. 83264 from SIGMA, 0.1% BSA Cat. 11926 from Invitrogen, pH 7.4
At the assay day cells are washed 3× with assay puffer, 20 μL buffer remaining in the wells after washing. 10 μL Ca6 kit (Cat. R8191 MolecularDevices) loading buffer in HBSS/HEPES is added to the cells and the plates are incubated with lid for 120 minutes at 37°/5% CO2. 10 μL of compound or controls in HBSS/HEPES buffer/5% DMSO from the intermediate dilution plate are carefully added to the wells. […] Finally 10 μL of the agonist AITC 50 μM dissolved in HBSS/HEPES buffer/0.05% DMSO (final concentration 10 μM) is added to the wells followed by an additional read on the FLIPRtetra device for 10 minutes. The area under the signal curve (AUC) after AITC addition is used for IC50/% inhibition calculations Data evaluation and calculation:
Each assay microtiter plate contains wells with vehicle (1% DMSO) controls instead of compound as controls for AITC induced luminescence (100% CTL; high controls) and wells with vehicle controls without AITC as controls for non-specific changes in luminescence (0% CTL; low controls).
The analysis of the data is performed by the calculation of the area under signal curve of the individual wells. Based on this values the % value for the measurement of each substance concentration is calculated (AUC(sample)−AUC(low))*100/(AUC(high)−AUC(low)) using MegaLab software (in house development). The IC50 values are calculated from the % control values using MegaLab software. Calculation: [y=(a−d)/(1+(x/c)^b)+d], a=low value, d=high value; x=conc M; c=IC50 M; b=hill; y=% ctrl

[1] = Assay B: Microsomal clearance; assay type: in vitro ADME, human; settings: pooled liver microsomes 1 mg/ml, test compound 1 μM, 37° C., NADPH
Method: Assay B: Microsomal Clearance:
The metabolic degradation of the test compound is assayed at 37° C. with pooled liver microsomes. The final incubation volume of 100 μl per time point contains TRIS buffer pH 7.6 at RT (0.1 M), magnesium chloride (5 mM), microsomal protein (1 mg/ml) and the test compound at a final concentration of 1 μM.
Following a short preincubation period at 37° C., the reactions are initiated by addition of beta-nicotinamide adenine dinucleotide phosphate, reduced form (NADPH, 1 mM) and terminated by transferring an aliquot into solvent after different time points (0, 5, 15, 30, 60 min). Additionally, the NADPH-independent degradation is monitored in incubations without NADPH, terminated at the last time point. The [%] remaining test compound after NADPH independent incubation is reflected by the parameter c(control) (metabolic stability). The quenched incubations are pelleted by centrifugation (10000 g, 5 min).
An aliquot of the supernatant is assayed by LC-MS/MS for the amount of parent compound. The half-life (t½ INVITRO) is determined by the slope of the semilogarithmic plot of the concentration-time profile.
The intrinsic clearance (CL_[…]) is calculated by considering the amount of protein in the incubation: CL_[…] [μl/min/mg protein]=(Ln 2/(half-life [min]*protein content [mg/ml]))*1000 CL_[…]_INVIVO [ml/min/kg]=(CL_[…] [μL/min/mg protein]×MPPGL [mg protein/g liver]×liver factor [g/kg bodyweight])/1000 Qh[%]=CL[ml/min/kg]/hepatic blood flow [ml/min/kg])
(§1) Hepatocellularity, human: 120×10e6 cells/g liver
(§2) Liver factor, human: 25.7 g/kg bodyweight
(§3) Blood flow, human: 21 ml/(min×kg)

[2] = Assay C: Hepatocyte clearance; assay type: in vitro ADME, human; settings: hepatocyte suspension, 5% species serum, test compound 1 μM, up to 6 h
Method: Assay C: Hepatocyte Clearance
The metabolic degradation of the test compound is assayed in a hepatocyte suspension. Hepatocytes (cryopreserved) are incubated in Dulbecco's modified eagle medium (supplemented with 3.5 μg glucagon/500 mL, 2.5 mg insulin/500 mL and 3.75 mg/500 mL hydrocortison) containing 5% species serum.
The cells are incubated for six hours (incubator, orbital shaker) and samples (25 μl) are taken at 0, 0.5, 1, 2, 4 and 6 hours. Samples are transferred into acetonitrile and pelleted by centrifugation (5 min). The supernatant is transferred to a new 96-deepwell plate, evaporated under nitrogen and resuspended.
Decline of parent compound is analyzed by HPLC-MS/MS
CLint is calculated as follows CL_[…]=Dose/AUC=(CO/CD)/(AUD+clast/k)×1000/60. C0: initial concentration in the incubation [μM], CD: cell density of vital cells [10e6 cells/mL], AUD: area under the data [μM×h], clast: concentration of last data point [μM], k: slope of the regression line for parent decline [h−1].
The calculated in vitro hepatic intrinsic clearance can be scaled up to the intrinsic in vivo hepatic Clearance and used to predict hepatic in vivo blood clearance (CL) by the use of a liver model (well stirred model). CL_[…]_INVIVO [ml/min/kg]=(CL_[…] [μL/min/10e6 cells]×hepato-cellularity [10e6 cells/g liver]×liver factor [g/kg bodyweight])/1000 CL[ml/min/kg]=CL_[…]_INVIVO [ml/min/kg]×hepatic blood flow [ml/min/kg]/(CL_[…]_INVIVO [ml/min/kg]+hepatic blood flow [ml/min/kg]) Qh[%]=CL[ml/min/kg]/hepatic blood flow [ml/min/kg])
as §1, §2, §3

T1 sequence (O75762 whole entry): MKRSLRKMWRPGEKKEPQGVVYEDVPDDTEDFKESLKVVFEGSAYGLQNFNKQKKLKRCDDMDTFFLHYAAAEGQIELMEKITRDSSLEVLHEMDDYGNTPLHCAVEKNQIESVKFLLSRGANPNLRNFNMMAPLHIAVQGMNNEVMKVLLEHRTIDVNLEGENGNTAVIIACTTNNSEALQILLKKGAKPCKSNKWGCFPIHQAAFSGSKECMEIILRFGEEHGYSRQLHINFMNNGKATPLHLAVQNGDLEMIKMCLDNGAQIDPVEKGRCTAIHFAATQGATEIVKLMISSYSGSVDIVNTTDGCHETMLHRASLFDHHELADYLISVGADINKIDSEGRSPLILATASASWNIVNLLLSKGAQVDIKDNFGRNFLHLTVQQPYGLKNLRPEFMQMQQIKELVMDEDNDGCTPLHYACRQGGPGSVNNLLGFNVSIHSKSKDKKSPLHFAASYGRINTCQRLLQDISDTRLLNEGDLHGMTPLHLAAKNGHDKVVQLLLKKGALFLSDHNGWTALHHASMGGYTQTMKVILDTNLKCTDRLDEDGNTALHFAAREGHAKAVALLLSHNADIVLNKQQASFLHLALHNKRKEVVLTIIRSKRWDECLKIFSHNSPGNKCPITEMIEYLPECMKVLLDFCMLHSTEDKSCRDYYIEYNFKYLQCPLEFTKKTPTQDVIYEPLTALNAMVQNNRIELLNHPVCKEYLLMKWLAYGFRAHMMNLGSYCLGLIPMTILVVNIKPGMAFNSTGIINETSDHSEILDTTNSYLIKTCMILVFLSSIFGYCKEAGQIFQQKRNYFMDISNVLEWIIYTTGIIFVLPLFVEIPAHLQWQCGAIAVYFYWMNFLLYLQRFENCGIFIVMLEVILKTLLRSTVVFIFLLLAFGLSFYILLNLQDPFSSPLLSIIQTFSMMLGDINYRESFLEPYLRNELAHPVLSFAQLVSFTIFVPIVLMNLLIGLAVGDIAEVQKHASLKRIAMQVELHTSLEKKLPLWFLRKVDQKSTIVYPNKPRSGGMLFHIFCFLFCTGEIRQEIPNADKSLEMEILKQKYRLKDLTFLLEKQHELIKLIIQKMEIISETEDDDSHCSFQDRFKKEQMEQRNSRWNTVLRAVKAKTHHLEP

Row | Compound | pIC50 (human TRPA1 ion channel) | human LM [% Qh] [1] | human Hepatocytes [% Qh] [2]
1 | Cn1c(=O)c(C(N)=O)cn(Cc2nc(C[C@H](O)c3ccc(Cl)cc3)no2)c1=O [Example 1, 1-({3-[(2S)-2-(4-chlorophenyl)-2-hydroxyethyl]-1,2,4-oxadiazol-5-yl}methyl)-3-methyl-2,4-dioxo-1,2,3,4-tetrahydropyrimidine-5-carboxamide] | 7.42 | <23 % Qh | 15 % Qh
2 | Cn1c(=O)c(C(N)=O)cn(Cc2nc(C[C@H](O)c3cc4ccccc4s3)no2)c1=O [Example 2] | 8.22 | <23 % Qh | 24 % Qh
3 | Cn1c(=O)c(C(N)=O)cn(Cc2nc(C[C@H](O)c3cc4ccc(F)cc4s3)no2)c1=O [Example 3] | 8.10 | 43 % Qh | 17 % Qh
4 | Cn1c(=O)c(C(N)=O)cn(Cc2nc(C[C@H](O)c3cc4cc(Cl)ccc4o3)no2)c1=O [Example 4] | 7.82 | <23 % Qh | 21 % Qh
5 | Cn1c(=O)c(C(N)=O)cn(Cc2nc(C[C@H](O)c3cc4cc(F)ccc4o3)no2)c1=O [Example 5] | 7.48 | <23 % Qh | 15 % Qh
6 | Cn1c(=O)c(C(N)=O)cn(Cc2nc(C[C@H](O)c3ccc(I)cc3)no2)c1=O [Example 6] | 7.24 | 24 % Qh | 17 % Qh
7 | Cc1ccc([C@@H](O)Cc2noc(Cn3cc(C(N)=O)c(=O)n(C)c3=O)n2)cc1 [Example 7] | 7.08 | <23 % Qh | 8 % Qh
